Data: patent US20100144853A1, “NOVEL COMBINED ADMINISTRATION” (priority 2008, published 2010)

Test: Stability of COMPOUND A in human intestinal fluids, Procedure F (suspension, no separation of excess), first table
Format: in vitro ADME
Details: summary of Example 5
Method: Fasted Intestinal Fluids: the fluids from 4 different subjects were collected with a naso-jejunal tube after fasting overnight and pooled.
Procedure F (COMPOUND A and COMPOUND B in suspension, the degradation immediately stopped without separation of excess compound): Stock K=COMPOUND B suspension (0.5 mg/mL)
Dilute 1 part of COMPOUND B suspension (stock J) with 3 parts of FeSSIF pH6.5 solution.
500 μL of freshly thawed intestinal fluids (fasted and stimulated state) were added to 1.2 mg of COMPOUND A in a 1 mL glass vial. The suspended compound was stirred for 15 min at 37° C. to obtain wetting and a homogenous suspension. In parallel, 4 glass vials were prepared with 20 μL of a COMPOUND B suspension at different concentrations. These concentrations were obtained by mixing FeSSIF pH6.5 and COMPOUND B suspension (stock K) in different ratios, respectively 1:[…], 1:1, 0:1 to obtain 0, 1, 2 and 4% related to COMPOUND A. At time zero, 100 μL of COMPOUND A suspension preincubated at 37° C. were added to the 20 μL COMPOUND B suspension. The mixture was incubated at 37° C. with gentle stirring. After 15 min and 60 min, the reaction was stopped by mixing a 50 μL sample with 150 μL isopropanol and centrifuged at 5′000 rpm during 5 min. The clear supernatant was analyzed for the hydrolysis product and its oxidized form by HPLC.

Question: With `CCCCCCCCCCC[C@@H](C[C@@H]1OC(=O)[C@H]1CCCCCC)OC(=O)[C@H](CC(C)C)NC=O` [COMPOUND B, 1-(3-hexyl-4-oxo-oxetan-2-yl)tridecan-2-yl 2-formyl-amino-4-methyl-pentanoate, reference compound] as the molecule, how does the “Effect of COMPOUND B on gastrointestinal enzyme induced hydrolytic degradation of COMPOUND A” value read?
Answer: Its value is “efficiently prevents gastrointestinal enzyme induced hydrolytic degradation of COMPOUND A”.
